# Assay results published in PubChem BioAssay (NCI).
#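 These data come from cells grown in 96-well plates and exposed to compound for 48 hours at five concentrations. TGI denotes the concentration required for complete inhibition of growth.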
# How the values were obtained:
# Assay in all cases: NCI-60 cell line screen, 48 h
# DMS 273 small cell lung = system: DMS 273 small cell lung
# MCF7 breast = system: MCF7 breast
# SNB-78 CNS = system: SNB-78 CNS
# HOP-18 NSCLC = system: HOP-18 NSCLC
# DLD-1 colon = system: DLD-1 colon
# M14 melanoma = system: M14 melanoma
# DU-145 prostate = system: DU-145 prostate
# M19-MEL melanoma = system: M19-MEL melanoma
# SNB-75 CNS = system: SNB-75 CNS
# BT-549 breast = system: BT-549 breast
# HL-60(TB) leukemia = system: HL-60(TB) leukemia
# T-47D breast = system: T-47D breast
SMILES,TGI (DMS 273 small cell lung) [µM],TGI (MCF7 breast) [µM],TGI (SNB-78 CNS) [µM],TGI (HOP-18 NSCLC) [µM],TGI (DLD-1 colon) [µM],TGI (M14 melanoma) [µM],TGI (DU-145 prostate) [µM],TGI (M19-MEL melanoma) [µM],TGI (SNB-75 CNS) [µM],TGI (BT-549 breast) [µM],TGI (HL-60(TB) leukemia) [µM],TGI (T-47D breast) [µM]
Nc1ccn(C2OC(COC(=O)C34CC5CC(CC(C5)C3)C4)C(O)C2O)c(=O)n1 (configuration not stated),> 100,> 100,> 100,> 100,> 100,> 100,> 100,> 100,> 100,> 100,> 34.1,> 100
O=C1C=CC(=O)c2cc(Sc3ccccc3)c(=O)ccc21,35.1,23.9,42.6,31.8,39,41.3,31.5,35.3,31.2,40,1.79,12.5
CC[N+]1(C)CCC(O)(c2ccc(OC)cc2)C(C(=O)c2ccc(OC)cc2)C1 (configuration not stated),43.1,17.7,41.5,32.6,8.03,21.3,32.7,42.4,27.8,32.3,8.9,33.8
CSc1n[n+]2c(s1)SCCC2,> 100,–,> 100,> 100,> 100,> 100,–,> 100,> 100,–,> 100,–
O=C1C(Cl)C(c2ccccc2O)N1n1cnc2ccccc2c1=O (configuration not stated),> 100,–,> 100,> 100,> 100,> 100,–,> 100,49.6,–,> 100,–
